Test results reported in US5543415A, “Antidepressants” (Kyowa Hakko Kogyo Co., Ltd., priority 1992, dated 1996).

system: ddY-strain male mice; assay: Acute Toxicity Test (minimum lethal dose, oral); format: in vivo; settings: seven days after administration
Experimental: Test compounds were orally administered to groups of ddY-strain male mice weighing 20±1 g, each group consisting of three mice. Seven days after the administration, minimum lethal dose (MLD) of each compound was determined by observing the mortality.

Row | Compound | MLD (minimum lethal dose) [mg/kg]
1 | CCCn1c(=O)c2nc(/C=C/c3cccc(Cl)c3)[nH]c2n(CCC)c1=O [Compound 39, (E)-8-(3-Chlorostyryl)-1,3-dipropylxanthine] | > 100
2 | CCCn1c(=O)c2c(nc(/C=C/c3cccc(Cl)c3)n2C)n(CCC)c1=O [Compound 40, (E)-8-(3-Chlorostyryl)-7-methyl-1,3-dipropylxanthine] | > 300
3 | CCCn1c(=O)c2[nH]c(/C=C/c3ccccc3Cl)nc2n(CCC)c1=O [Compound 41, (E)-8-(2-Chlorostyryl)-1,3-dipropylxanthine] | > 100
4 | CCCn1c(=O)c2c(nc(/C=C/c3ccccc3Cl)n2C)n(CCC)c1=O [Compound 42, (E)-8-(2-Chlorostyryl)-7-methyl-1,3-dipropylxanthine] | > 100
5 | CCCn1c(=O)c2[nH]c(/C=C/c3ccccc3F)nc2n(CCC)c1=O [Compound 43, (E)-8-(2-Fluorostyryl)-1,3-dipropylxanthine] | > 100
6 | CCCn1c(=O)c2c(nc(/C=C/c3ccccc3F)n2C)n(CCC)c1=O [Compound 44, (E)-8-(2-Fluorostyryl)-7-methyl-1,3-dipropylxanthine] | > 100
7 | CCCn1c(=O)c2[nH]c(/C=C/c3cc(C)c(OC)cc3C)nc2n(CCC)c1=O [Compound 45, (E)-8-(4-Methoxy-2,5-dimethylstyryl)-1,3-dipropylxanthine] | > 300
8 | CCCn1c(=O)c2c(nc(/C=C/c3cc(C)c(OC)cc3C)n2C)n(CCC)c1=O [Compound 46, (E)-8-(4-Methoxy-2,5-dimethylstyryl)-7-methyl-1,3-dipropylxanthine] | > 300
9 | CCCn1c(=O)c2c(nc(/C=C\c3ccc(OC)c(OC)c3)n2C)n(CCC)c1=O [Compound 47, (Z)-8-(3,4-Dimethoxystyryl)-7-methyl-1,3-dipropylxanthine] | > 300
10 | CCCn1c(=O)c2[nH]c(/C=C/c3ccc(OCC)cc3)nc2n(CCC)c1=O [Compound 48, (E)-8-(4-Ethoxystyryl)-1,3-dipropylxanthine] | > 100
11 | CCCOc1ccc(/C=C/c2nc3c([nH]2)c(=O)n(CCC)c(=O)n3CCC)cc1 [Compound 50, (E)-8-(4-Propoxystyryl)-1,3-dipropylxanthine] | > 100
12 | CCCOc1ccc(/C=C/c2nc3c(c(=O)n(CCC)c(=O)n3CCC)n2C)cc1 [Compound 51, (E)-7-Methyl-8-(4-propoxystyryl)-1,3-dipropylxanthine] | > 300
13 | CCCCOc1ccc(/C=C/c2nc3c([nH]2)c(=O)n(CCC)c(=O)n3CCC)cc1 [Compound 52, (E)-8-(4-Butoxystyryl)-1,3-dipropylxanthine] | > 100
14 | CCCCOc1ccc(/C=C/c2nc3c(c(=O)n(CCC)c(=O)n3CCC)n2C)cc1 [Compound 53, (E)-8-(4-Butoxystyryl)-7-methyl-1,3-dipropylxanthine] | > 300
15 | CCCn1c(=O)c2c(nc(/C=C/c3ccc(O)c(O)c3)n2C)n(CCC)c1=O [Compound 54, (E)-8-(3,4-Dihydroxystyryl)-7-methyl-1,3-dipropylxanthine] | > 100
16 | CCCn1c(=O)c2c(nc(/C=C/c3ccc(OCC)c(OCC)c3)n2C)n(CCC)c1=O [Compound 55, (E)-8-(3,4-Diethoxystyryl)-7-methyl-1,3-dipropylxanthine] | > 100
17 | CCCn1c(=O)c2[nH]c(/C=C/c3ccc(OC)c(Br)c3)nc2n(CCC)c1=O [Compound 56, (E)-8-(3-Bromo-4-methoxystyryl)-1,3-dipropylxanthine] | > 100
18 | CCCn1c(=O)c2c(nc(/C=C/c3ccc(OC)c(Br)c3)n2C)n(CCC)c1=O [Compound 57, (E)-8-(3-Bromo-4-methoxystyryl)-7-methyl-1,3-dipropylxanthine] | > 100
19 | CCCn1c(=O)c2[nH]c(/C=C/c3cc(OC)c(OC)cc3Br)nc2n(CCC)c1=O [Compound 58, (E)-8-(2-Bromo-4,5-dimethoxystyryl)-1,3-dipropylxanthine] | > 300
20 | CCCn1c(=O)c2c(nc(/C=C/c3cc(OC)c(OC)cc3Br)n2C)n(CCC)c1=O [Compound 59, (E)-8-(2-Bromo-4,5-dimethoxystyryl)-7-methyl-1,3-dipropylxanthine] | > 300
21 | CCCn1c(=O)c2[nH]c(/C=C/c3cc(Br)c(OC)c(OC)c3)nc2n(CCC)c1=O [Compound 60, (E)-8-(3-Bromo-4,5-dimethoxystyryl)-1,3-dipropylxanthine] | > 300

Row | Compound | MLD (minimum lethal dose) [mg/kg]
22 | CCCn1c(=O)c2c(nc(/C=C/c3cc(Br)c(OC)c(OC)c3)n2C)n(CCC)c1=O [Compound 61, (E)-8-(3-Bromo-4,5-dimethoxystyryl)-7-methyl-1,3-dipropylxanthine] | > 100
23 | CCCn1c(=O)c2[nH]c(/C=C/c3ccc(OC)c4ccccc34)nc2n(CCC)c1=O [Compound 62, (E)-8-[2-(4-Methoxynaphthyl)vinyl]-1,3-dipropylxanthine] | > 100
24 | CCCn1c(=O)c2c(nc(/C=C/c3ccc(OC)c4ccccc34)n2C)n(CCC)c1=O [Compound 63, (E)-8-[2-(4-Methoxynaphthyl)vinyl]-7-methyl-1,3-dipropylxanthine] | > 300
25 | CCCn1c(=O)c2c(nc(/C=C/c3ccc(OC)c(O)c3)n2C)n(CCC)c1=O [Compound 64, (E)-8-(3-Hydroxy-4-methoxystyryl)-7-methyl-1,3-dipropylxanthine] | > 100
26 | CCCn1c(=O)c2c(nc(/C=C\c3ccc(OC)c(OC)c3)n2C)n(CCC)c1=O [Compound 65, (Z)-8-(3,4-Dimethoxystyryl)-7-methyl-1,3-dipropylxanthine] | > 300
27 | CCCn1c(=O)c2c(nc(/C=C/c3ccc(OC)c(OC)c3)n2CC)n(CCC)c1=O [Compound 66, (E)-8-(3,4-Dimethoxystyryl)-7-ethyl-1,3-dipropylxanthine] | > 300
28 | C#CCn1c(/C=C/c2ccc(OC)c(OC)c2)nc2c1c(=O)n(CCC)c(=O)n2CCC [Compound 67, (E)-8-(3,4-Dimethoxystyryl)-7-propargyl-1,3-dipropylxanthine] | > 300
29 | CCCn1c(=O)c2c(nc(/C=C/c3ccc(OCOC)c(OCOC)c3)n2C)n(CCC)c1=O [Compound 68, (E)-8-[3,4-Bis(methoxymethoxy)styryl]-7-methyl-1,3-dipropylxanthine] | > 100
30 | C=CCn1c(=O)c2[nH]c(/C=C/c3ccc(OC)c(OC)c3)nc2n(CC=C)c1=O [Compound 69, (E)-1,3-Diallyl-8-(3,4-dimethoxystyryl)xanthine] | > 100
31 | CCCn1c(=O)c2[nH]c(/C=C/c3ccc(OC)c(OC)c3)nc2n(CCC)c1=S [Compound 71, (E)-8-(3,4-Dimethoxystyryl)-1,3-dipropyl-2-thioxanthine] | > 100
32 | CCCn1c(=O)c2c(nc(/C=C/c3ccc(OC)c(OC)c3)n2C)n(CCC)c1=S [Compound 72, (E)-8-(3,4-Dimethoxystyryl)-7-methyl-1,3-dipropyl-2-thioxanthine] | > 300
33 | CCn1c(=O)c2[nH]c(/C=C/c3ccc(OC)c(OC)c3)nc2n(CC)c1=O [Compound 73, (E)-8-(3,4-Dimethoxystyryl)-1,3-diethylxanthine] | > 300
34 | CCn1c(=O)c2[nH]c(/C=C/c3cccc(OC)c3OC)nc2n(CC)c1=O [Compound 75, (E)-8-(2,3-Dimethoxystyryl)-1,3-diethylxanthine] | > 300
35 | CCn1c(=O)c2c(nc(/C=C/c3cccc(OC)c3OC)n2C)n(CC)c1=O [Compound 76, (E)-8-(2,3-Dimethoxystyryl)-1,3-diethyl-7-methylxanthine] | > 300
36 | CCn1c(=O)c2[nH]c(/C=C/c3ccc(OC)cc3OC)nc2n(CC)c1=O [Compound 77, (E)-8-(2,4-Dimethoxystyryl)-1,3-diethylxanthine] | > 100
37 | CCn1c(=O)c2[nH]c(/C=C/c3ccc(OC)c(OC)c3OC)nc2n(CC)c1=O [Compound 79, (E)-1,3-Diethyl-8-(2,3,4-trimethoxystyryl)xanthine] | > 300
38 | CCn1c(=O)c2[nH]c(/C=C/c3ccc(OC)c(C)c3C)nc2n(CC)c1=O [Compound 81, (E)-1,3-Diethyl-8-(4-methoxy-2,3-dimethylstyryl)xanthine] | > 300
39 | CCn1c(=O)c2[nH]c(/C=C/c3cc(C)c(OC)cc3C)nc2n(CC)c1=O [Compound 83, (E)-1,3-Diethyl-8-(4-methoxy-2,5-dimethylstyryl)xanthine] | > 300
40 | CCn1c(=O)c2c(nc(/C=C/c3cc(C)c(OC)cc3C)n2C)n(CC)c1=O [Compound 84, (E)-1,3-Diethyl-8-(4-methoxy-2,5-dimethylstyryl)-7-methylxanthine] | > 300
41 | CCn1c(=O)c2[nH]c(/C=C/c3ccc(OC)c(C)c3OC)nc2n(CC)c1=O [Compound 85, (E)-8-(2,4-Dimethoxy-3-methylstyryl)-1,3-diethylxanthine] | > 300
42 | CCn1c(=O)c2c(nc(/C=C/c3ccc(OC)c(C)c3OC)n2C)n(CC)c1=O [Compound 86, (E)-8-(2,4-Dimethoxy-3-methylstyryl)-1,3-diethyl-7-methylxanthine] | > 300
